# How the values were obtained:
# [1] = system: Staphylococcus Aureus ATCC 25923; test: Colourimetric fermentation assays in loaded capillaries; format: cell-based; settings: overnight at 37° C.; reagent per capillary from Table 4; orange to yellow = fermentation, orange to purple = arginine/urea degradation
# Method: (§1) An experiment was conducted to test a combination of sugar fermentation and enzymatic assays for the specific identification of bacteria. Individual 200 micron internal diameter capillaries coated with cross-linked HMW PVA were individually loaded with different reagents to perform a combination of colourimetric sugar fermentation and enzymatic assays as shown in Table 4. [table] […] Staphylococcus Epidermidis ATCC 12228 or Staphylococcus Saprophyticus ATCC 15305 resuspended in Microbatch Staph 12 S suspending media. The strips were incubated overnight at 37° C., and positive/negative identification of assays on individual capillaries was performed by imaging the strips with CCD camera. Sugar Fermentation: if a sugar is fermented, bacteria will produce acid end products and the pH of the medium will drop. The media contains a pH indicator to indicate acid production. A positive test for sugar fermentation consists of a colour change from orange to yellow, indicating a pH change to acidic. Arginine and Urea degradation (detection of Arginine dihydrolase/Urease): when arginine or urea are present, the pH of the medium rises. Accordingly, a positive test for detection of arginine dihydrolase or urease consists of a colour change from orange to purple indicating a pH change to alkaline.
# [2] = system: Staphylococcus Saprophyticus ATCC 15305; test: as above; format: cell-based; settings: overnight at 37° C.; reagent per capillary from Table 4; orange to yellow = fermentation, orange to purple = arginine/urea degradation
# Method: as §1
# [3] = system: Staphylococcus Aureus ATCC 25923; test: Colourimetric enzymatic assays in loaded capillaries; format: cell-based; settings: overnight at 37° C.; substrate per capillary from Table 4, 500 mg/mL; yellow = positive reaction
# Method: (§2) An experiment was conducted to test a combination of sugar fermentation and enzymatic assays for the specific identification of bacteria. Individual 200 micron internal diameter capillaries coated with cross-linked HMW PVA were individually loaded with different reagents to perform a combination of colourimetric sugar fermentation and enzymatic assays as shown in Table 4. [table] […] Staphylococcus Epidermidis ATCC 12228 or Staphylococcus Saprophyticus ATCC 15305 resuspended in Microbatch Staph 12 S suspending media. The strips were incubated overnight at 37° C., and positive/negative identification of assays on individual capillaries was performed by imaging the strips with CCD camera. Enzyme detection: enzymatic substrates are normally colourless. If bacteria have the targeted enzymes, the substrates will be hydrolysed, releasing compounds that will produce a yellow colour indicating a positive reaction.
# [4] = system: Staphylococcus Epidermidis ATCC 12228; test: as above; format: cell-based; settings: overnight at 37° C.; substrate per capillary from Table 4, 500 mg/mL; yellow = positive reaction
# Method: as §2
# [5] = system: Staphylococcus Epidermidis ATCC 12228; test: Colourimetric fermentation assays in loaded capillaries; format: cell-based; settings: overnight at 37° C.; reagent per capillary from Table 4; orange to yellow = fermentation, orange to purple = arginine/urea degradation
# Method: as §1
# E. coli = test: Sugar fermentation in sugar loaded test strips with Phenol Red Broth; format: cell-based; settings: sugar loaded from 1 g/L solution; 1 h at 37 degrees C; yellow = reduction in pH
# Method: (§3) The ability of bacteria to ferment specific sugars is also frequently used to distinguish similar species of bacteria. For example, E. coli are able to ferment lactose and glucose and produce acid when they are incubated in the presence of either of these sugars.
# (§4) A 10 bore FEP microcapillary film was internally coated with cross-linked PVA. Test microcapillary film was prepared by first loading the capillaries with either glucose or lactose by filling the capillaries with a 1 g/L solution in water and incubating for 5 minutes. The sugar solutions were then removed and the microcapillary film air dried using a syringe to pass air repeatedly through the capillaries. Three test strips were cut from each of the glucose or lactose loaded microcapillary film and dipped into one of 3 different aqueous samples. The first sample was a control sample that contained no bacteria. The second sample contained a suspension of E. coli. The third sample contained a suspension of Salmonella typhimurium. All three aqueous samples also contained Phenol Red Broth (Casein peptone 1 g/L; NaCl 0.5 g/L; Phenol Red 1 g/L). The samples all started out with a pH of 7 and were bright red in colour. When dipped, each aqueous sample was rapidly drawn up into the test strips, and the microcapillaries were clearly bright red in colour due to the Phenol Red indicator dye in the sample. […]
# Salmonella typhimurium = test: as above; format: cell-based; settings: sugar loaded from 1 g/L solution; 1 h at 37 degrees C; yellow = reduction in pH
# Method: as §3, §4
# [6] = system: Staphylococcus Saprophyticus ATCC 15305; test: Colourimetric enzymatic assays in loaded capillaries; format: cell-based; settings: overnight at 37° C.; substrate per capillary from Table 4, 500 mg/mL; yellow = positive reaction
# Method: as §2
# [7] = ONPG released into water from loaded cross-linked PVA coated strips, enzymatic endpoint analysis at 420 nm; format: physicochemical; settings: 1 hour, 60 mm strips
# Method: Reagent loading and release from the hydrophilic layer was quantified using a fluorescent dye and colorimetric enzyme substrates. For this purpose, an FEP microcapillary film was coated with cross-linked PVA and loaded with two assay reagents, the enzymatic substrate ortho-nitrophenyl-β-galactoside (ONPG) which produces a yellow colour in the presence of beta-galactosidase, and the fluorescent dye fluorescein. Loading was performed by incubation with a water or dimethylformamide (DMF)-based reagent solution for between 5 minutes and 2 h, and subsequent removal of the loading solution using a syringe, followed by air drying of the capillaries by repeated aspiration of air through the film using a syringe. Following loading of the capillaries, the amount of reagent loaded was quantified using three different methods.
# The water taken up was then removed using a syringe and ONPG concentration measured by enzymatic endpoint analysis in a microwell plate well through the addition of an excess of beta-galactosidase enzyme and monitoring absorbance at 420 nm using a microwell plate reader. Released concentrations were determined by comparison of absorbance with a calibration curve of known concentrations of ONPG.
# [8] = ONPG loaded in strips, determined by dipping into beta-galactosidase solution, absorbance at 420 nm; format: physicochemical; settings: loaded 5 minutes with 150 mg/ml in DMF; cross-linked PVA; 1 hour with beta-galactosidase 0.2 U/μL
# Method: Secondly, the concentration of loaded ONPG was determined inside the capillary film by dipping an FEP microcapillary film coated with cross-linked PVA, and loaded for 5 minutes with 150 mg/ml ONPG dissolved in DMF, into aqueous solutions of beta-galactosidase enzyme (at 0.2 U/μL). The solution was drawn up into test strips, and incubated for 1 hour to allow complete enzymatic conversion of the loaded ONPG. Subsequently, solution was removed from MCF test strips using a syringe and absorbance read using a microplate reader at 420 nm, and absorbance compared to a calibration curve of known concentrations of enzymatically converted ONPG.
# [9] = ONPG released into water from strips with different hydrophilic coatings; format: physicochemical; settings: loaded 150 g/L, 5 minute
# Method: The polymer solutions were then removed from the microcapillary film and the film dried by repeatedly aspirating air through the film strip using a syringe. An FEP microcapillary film coated with cross-linked PVA was used as a control. 8 cm lengths of each polymer coated film were then loaded with ONPG reagent by dipping the film into a 150 g/L ONPG solution. After a 5 minute incubation, the ONPG solution was removed and capillaries were dried using a syringe. The test films were then dipped into water, and the amount of ONPG reagent released into the water measured by a colorimetric endpoint determination using beta-galactosidase enzyme. With the cross-linked PVA coated test strips, 7.8 mg/ml ONPG was released, with gelatine coated test strips 7.2 mg/ml ONPG was released, and with HPMC coated test strips 21.5 mg/ml ONPG was released.
# [10] = system: E. coli (ATCC accession number: 25922); test: ONPG loaded test strips dipped into bacterial culture, yellow colour; format: cell-based; settings: IPTG-cultured (1 mM, 3 hours); 1 hour incubation at 37 degrees C
# Method: (§5) A 10 bore FEP microcapillary film was internally coated with cross-linked PVA. Test microcapillary film was prepared by first loading the capillaries with ONPG by filling the capillaries with a 150 mg·mL^−1 ONPG substrate solution in DMF and incubating for 5 minutes. The substrate solution was then removed and the microcapillary film air dried using a syringe to pass air repeatedly through the capillaries. Seven test strips were cut from this ONPG loaded microcapillary film and dipped into one of 7 different aqueous samples. These comprised water (1); sterile Luria-Bertani lysogeny broth (LB) media (2); a 0.1 U/μl solution of β-galactosidase enzyme (3); an overnight culture of E. coli (ATCC accession number: 25922) suspended in LB (4); an overnight culture of Salmonella typhimurium (strain SL3261) suspended in LB (5); an overnight culture of E. coli suspended in a phosphate buffer saline PBS (6); an overnight culture of S. typhimurium suspended in PBS (7). Negative control test strips consisting of PVA coated cross-linked PVA but not loaded with ONPG were dipped into the same samples (referred hereafter as no substrate). As a comparison, similar assays were also performed in 96 well-plates with ONPG substrate solution (final concentration 1 mg·ml^−1) added to the different samples in a final volume of 100 μl. […]
# [11] = system: Salmonella typhimurium (strain SL3261); test: as above; format: cell-based; settings: IPTG-cultured (1 mM, 3 hours); 1 hour incubation at 37 degrees C
# Method: as §5
# [12] = system: E. coli (ATCC accession number: 25922); test: ONPG assay in 96 well-plates (comparison); format: cell-based; settings: ONPG 1 mg/ml, overnight incubation
# Method: (§6) A 10 bore FEP microcapillary film was internally coated with cross-linked PVA. Test microcapillary film was prepared by first loading the capillaries with ONPG by filling the capillaries with a 150 mg·mL^−1 ONPG substrate solution in DMF and incubating for 5 minutes. The substrate solution was then removed and the microcapillary film air dried using a syringe to pass air repeatedly through the capillaries. Seven test strips were cut from this ONPG loaded microcapillary film and dipped into one of 7 different aqueous samples. These comprised water (1); sterile Luria-Bertani lysogeny broth (LB) media (2); a 0.1 U/μl solution of β-galactosidase enzyme (3); an overnight culture of E. coli (ATCC accession number: 25922) suspended in LB (4); an overnight culture of Salmonella typhimurium (strain SL3261) suspended in LB (5); an overnight culture of E. coli suspended in a phosphate buffer saline PBS (6); an overnight culture of S. typhimurium suspended in PBS (7). Negative control test strips consisting of PVA coated cross-linked PVA but not loaded with ONPG were dipped into the same samples (referred hereafter as no substrate). As a comparison, similar assays were also performed in 96 well-plates with ONPG substrate solution (final concentration 1 mg·ml^−1) added to the different samples in a final volume of 100 μl.
# [13] = system: Salmonella typhimurium (strain SL3261); test: ONPG assay in 96 well-plates (comparison); format: cell-based; settings: ONPG 1 mg/ml, overnight incubation
# Method: as §6
compound,measurement,setting,value
OC[C@@H](O)[C@@H](O)[C@H](O)[C@H](O)CO [Mannitol],"colour, fermentation assays",[1],Y
same,"colour, fermentation assays",[2],Y
CC(=O)N[C@H]1C(O)O[C@H](CO)[C@@H](O)[C@@H]1O (stereo partly drawn) [N-Acetyl Glucosamine],"colour, fermentation assays",[1],Y
OC[C@H]1O[C@H](O[C@H]2O[C@H](CO)[C@@H](O)[C@H](O)[C@H]2O)[C@H](O)[C@@H](O)[C@@H]1O [Trehalose],"colour, fermentation assays",[1],Y
same,"colour, fermentation assays",[2],Y
O=C(O)[C@H]1O[C@@H](Oc2ccc([N+](=O)[O-])cc2)[C@H](O)[C@@H](O)[C@@H]1O [4-Nitrophenyl β-D-glucuronide],"colour, enzymatic assays",[3],Y
same,"colour, enzymatic assays",[4],Y
OC[C@H]1O[C@@](CO)(O[C@H]2O[C@H](CO)[C@@H](O)[C@H](O)[C@H]2O)[C@@H](O)[C@@H]1O [Sucrose],"colour, fermentation assays",[1],Y
same,"colour, fermentation assays",[5],Y
same,"colour, fermentation assays",[2],Y
OC[C@H]1O[C@@H](O[C@H]2[C@H](O)[C@@H](O)C(O)O[C@@H]2CO)[C@H](O)[C@@H](O)[C@H]1O (stereo partly drawn) [lactose],colour of sugar loaded test strips (Phenol Red),E. coli,turned yellow
same,colour of sugar loaded test strips (Phenol Red),Salmonella typhimurium,remained bright red
O=[N+]([O-])c1ccc(OP(=O)(O)O)cc1 [4-Nitrophenyl phosphate],"colour, enzymatic assays",[3],Y
N=C(N)NCCC[C@H](N)C(=O)O [Arginine],"colour, fermentation assays",[1],O/P
O=[N+]([O-])c1ccc(O[C@@H]2O[C@H](CO)[C@H](O)[C@H](O)[C@H]2O)cc1 [4-Nitrophenyl β-D-galacto-pyranoside],"colour, enzymatic assays",[6],Y
"O=[N+]([O-])c1ccccc1O[C@@H]1O[C@H](CO)[C@H](O)[C@H](O)[C@H]1O [ONPG, ortho-nitrophenyl-β-galactoside]",Released Concentration,[7]; Loading concentration 0.5 mg/ml In Water,0.07 mg/mL
same,Released Concentration,[7]; Loading concentration 1.0 mg/ml In Water,0.01 mg/mL
same,Released Concentration,[7]; Loading concentration 5.0 mg/ml In Water,0.06 mg/mL
same,Released Concentration,[7]; Loading concentration 150.0 mg/ml In DMF,4.67 mg/mL
same,average concentration loaded within test strips,[8],3.4 mg/mL
same,ONPG released,[9]; HPMC coated test strips,21.5 mg/mL
same,ONPG released,[9]; cross-linked PVA coated test strips,7.8 mg/mL
same,ONPG released,[9]; gelatine coated test strips,7.2 mg/mL
same,colour of ONPG-loaded test strips,[10],a yellow colour was observed
same,colour of ONPG-loaded test strips,[11],no yellow colour was observed
same,colour of wells,[12],turned yellow
same,colour of wells,[13],E. coli but not S. typhimurium suspensions turned yellow
OC[C@H]1O[C@H](O[C@H]2[C@H](O)[C@@H](O)[C@H](O)O[C@@H]2CO)[C@H](O)[C@@H](O)[C@@H]1O [Maltose],"colour, fermentation assays",[1],Y
same,"colour, fermentation assays",[5],Y
same,"colour, fermentation assays",[2],Y

# — patent US20180021773A1, “ASSAY DEVICES, METHODS FOR CARRYING OUT ASSAYS, ASSAY KITS AND METHOD FOR MANUFACTURING ASSAY DEVICES” (Loughborough University, priority 2014, published 2018)
